Laboratory results reported in ChEMBL document CHEMBL1250455, “Further delineation of hydrophobic binding sites in dopamine D(2)/D(3) receptors for N-4 substituents on the piperazine ring of the hybrid template 5/7-{[2-(4-aryl-piperazin-1-yl)-ethyl]-propyl-amino}-5,6,7,8-tetrahydro-naphthalen-2-ol” (Bioorg Med Chem, 2010).

How the values were obtained:
D(2) dopamine receptor [1] = molecular target: D(2) dopamine receptor (Rattus norvegicus, UniProt P61169); assay: Displacement of [3H]spiperone from rat D2 receptor expressed in HEK293 cells; format: cell-based
Sequence of D(2) dopamine receptor (Rattus norvegicus, UniProt P61169) (P61169 whole entry): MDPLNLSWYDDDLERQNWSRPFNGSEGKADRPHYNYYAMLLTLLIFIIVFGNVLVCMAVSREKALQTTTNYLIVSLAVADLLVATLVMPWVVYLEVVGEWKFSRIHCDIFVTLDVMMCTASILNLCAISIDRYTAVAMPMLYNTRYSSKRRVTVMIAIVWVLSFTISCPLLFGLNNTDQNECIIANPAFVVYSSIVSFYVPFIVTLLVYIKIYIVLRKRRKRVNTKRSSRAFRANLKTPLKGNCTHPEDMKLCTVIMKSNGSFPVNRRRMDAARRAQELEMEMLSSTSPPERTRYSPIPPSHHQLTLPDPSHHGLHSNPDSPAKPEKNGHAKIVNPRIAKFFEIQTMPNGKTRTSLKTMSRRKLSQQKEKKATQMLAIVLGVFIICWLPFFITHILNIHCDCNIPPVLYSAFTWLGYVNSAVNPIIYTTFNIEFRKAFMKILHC

D(3) dopamine receptor [2] = molecular target: D(3) dopamine receptor (Rattus norvegicus, UniProt P19020); assay: Displacement of [3H]spiperone from rat D3 receptor expressed in HEK293 cells; format: cell-based
Sequence of D(3) dopamine receptor (Rattus norvegicus, UniProt P19020) (P19020 whole entry): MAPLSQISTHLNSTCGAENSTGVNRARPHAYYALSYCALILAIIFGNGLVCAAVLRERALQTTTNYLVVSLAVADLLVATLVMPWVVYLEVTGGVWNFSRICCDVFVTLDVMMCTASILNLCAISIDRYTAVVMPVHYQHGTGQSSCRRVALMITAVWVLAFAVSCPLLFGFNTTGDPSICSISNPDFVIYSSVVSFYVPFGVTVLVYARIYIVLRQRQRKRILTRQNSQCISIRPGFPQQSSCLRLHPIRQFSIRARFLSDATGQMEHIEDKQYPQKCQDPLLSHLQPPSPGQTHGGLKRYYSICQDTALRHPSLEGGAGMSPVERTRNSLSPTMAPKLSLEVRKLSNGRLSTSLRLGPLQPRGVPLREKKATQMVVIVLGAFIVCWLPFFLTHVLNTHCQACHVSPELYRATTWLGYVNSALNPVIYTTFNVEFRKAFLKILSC

Rattus norvegicus = species: Rattus norvegicus; assay: Selectivity ratio for Ki for rat D2 receptor to Ki for rat D3 receptor
D(2) dopamine receptor [3] = molecular target: T1, D(2) dopamine receptor (Homo sapiens, UniProt P14416); assay: Agonist activity at human dopamine D2 receptor expressed in CHO cells assessed as stimulation of [35S]GTPgammaS binding relative to dopamine; format: functional, cell-based
T1 sequence (P14416 whole entry): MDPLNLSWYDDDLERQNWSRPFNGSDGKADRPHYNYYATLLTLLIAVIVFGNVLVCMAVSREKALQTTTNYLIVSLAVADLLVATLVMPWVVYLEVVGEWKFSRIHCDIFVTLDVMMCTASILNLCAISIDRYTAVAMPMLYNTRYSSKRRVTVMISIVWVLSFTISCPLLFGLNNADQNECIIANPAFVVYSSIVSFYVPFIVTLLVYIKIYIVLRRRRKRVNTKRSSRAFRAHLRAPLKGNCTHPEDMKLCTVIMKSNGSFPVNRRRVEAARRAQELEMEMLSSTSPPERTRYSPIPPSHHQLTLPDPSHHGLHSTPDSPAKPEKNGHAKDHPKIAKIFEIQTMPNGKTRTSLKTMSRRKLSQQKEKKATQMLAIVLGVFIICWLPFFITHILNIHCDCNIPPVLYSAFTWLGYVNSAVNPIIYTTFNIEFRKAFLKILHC

D(3) dopamine receptor [4] = molecular target: D(3) dopamine receptor (Homo sapiens, UniProt P35462); assay: Agonist activity at human dopamine D3 receptor expressed in CHO cells assessed as stimulation of [35S]GTPgammaS binding; format: functional, cell-based
Sequence of D(3) dopamine receptor (Homo sapiens, UniProt P35462) (P35462 whole entry): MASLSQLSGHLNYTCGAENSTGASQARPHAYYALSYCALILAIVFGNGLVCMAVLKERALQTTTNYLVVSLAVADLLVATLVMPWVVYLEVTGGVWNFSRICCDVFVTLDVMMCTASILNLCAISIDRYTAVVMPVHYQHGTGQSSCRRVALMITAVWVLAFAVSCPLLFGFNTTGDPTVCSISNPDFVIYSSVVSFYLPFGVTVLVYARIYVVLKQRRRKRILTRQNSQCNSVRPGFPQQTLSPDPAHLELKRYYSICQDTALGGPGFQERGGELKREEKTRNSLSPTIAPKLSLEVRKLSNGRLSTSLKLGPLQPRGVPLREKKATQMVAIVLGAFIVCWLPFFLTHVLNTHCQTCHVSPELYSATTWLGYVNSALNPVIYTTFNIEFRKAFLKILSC

Homo sapiens = species: Homo sapiens; assay: Selectivity ratio of EC50 for human dopamine D2 receptor to EC50 for human dopamine D3 receptor
D(2) dopamine receptor [5] = molecular target: T1, D(2) dopamine receptor; assay: Agonist activity at human dopamine D2 receptor expressed in CHO cells assessed as stimulation of [35S]GTPgammaS binding; format: functional, cell-based

| SMILES | Ki (D(2) dopamine receptor [1]) [nM] | Ki (D(3) dopamine receptor [2]) [nM] | Ratio Ki (Rattus norvegicus) | Emax (D(2) dopamine receptor [3]) [%] | EC50 (D(3) dopamine receptor [4]) [nM] | Ratio EC50 (Homo sapiens) | EC50 (D(2) dopamine receptor [5]) [nM] |
| --- | --- | --- | --- | --- | --- | --- | --- |
| CCCN(CCN1CCN(c2ccccn2)CC1)C1CCc2ccc(O)cc2C1 (configuration not stated) | 103 | 1.96 | 52.6 | – | – | – | – |
| CCCN(CCN1CCN(c2ncccn2)CC1)C1CCc2ccc(O)cc2C1 (configuration not stated) | 165 | 6.84 | 24.1 | – | – | – | – |
| CCCN(CCN1CCN(c2cccnc2)CC1)C1CCc2ccc(O)cc2C1 (configuration not stated) | 21.7 | 2.89 | 7.51 | – | – | – | – |
| CCCN(CCN1CCN(c2ccncc2)CC1)C1CCc2ccc(O)cc2C1 (configuration not stated) | 68.3 | 14.1 | 4.84 | – | – | – | – |
| CCCN(CCN1CCN(c2ccc(I)cc2)CC1)C1CCc2ccc(O)cc2C1 (configuration not stated) | 46.4 | 7.66 | 6.06 | – | – | – | – |
| CCCN(CCN1CCN(c2nccc3ccccc23)CC1)[C@H]1CCc2nc(N)sc2C1 | – | – | 121 | – | – | – | – |
| NCCc1ccc(O)c(O)c1 | – | – | – | 100 | – | – | – |
| CCCN(CCN1CCN(c2ccc(-c3cccnc3)cc2)CC1)C1CCc2ccc(O)cc2C1 (racemic) | 59.1 | 3.01 | 19.6 | – | – | – | – |
| CCCN(CCN1CCN(c2ccc(-c3ccccc3)cc2)CC1)C1CCc2c(O)cccc2C1 (single isomer, unassigned; (-)) | 53.6 | 2.36 | 22.7 | 71.8 | 0.25 | 202 | 52.6 |
| CCCN(CCN1CCN(c2ccc(-c3ccncc3)cc2)CC1)C1CCc2c(O)cccc2C1 (single isomer, unassigned; (-)) | – | 1.53 | – | – | – | – | – |
| CCCN(CCC)CCc1cccc2c1CC(=O)N2 [ROPINIROLE] | 2670 | – | – | 83.9 | – | – | – |

The remaining lines, values ahead:

| Ki (D(2) dopamine receptor [1]) [nM] | Ki (D(3) dopamine receptor [2]) [nM] | Ratio Ki (Rattus norvegicus) | Emax (D(2) dopamine receptor [3]) [%] | EC50 (D(3) dopamine receptor [4]) [nM] | Ratio EC50 (Homo sapiens) | EC50 (D(2) dopamine receptor [5]) [nM] | SMILES |
| --- | --- | --- | --- | --- | --- | --- | --- |
| – | – | 24.6 | – | – | – | – | CCCN(CCN1CCN(c2ccc(-c3ccncc3)cc2)CC1)C1CCc2ccc(O)cc2C1 (single isomer, unassigned; (-)) |
| 64.1 | 5.22 | – | – | – | – | – | CCCN(CCN1CCN(c2ccc(-c3ccccc3)cc2)CC1)C1CCc2ccc(O)cc2C1 (stereo in doubt; 8a) |
| 24.7 | – | – | – | – | – | – | CCCN(CCN1CCN(c2ccc(-c3ccncc3)cc2)CC1)C1CCc2ccc(O)cc2C1 (stereo in doubt; 22d) [listing 1 of 2 here] |
| – | – | 32 | – | – | – | – | CCCN(CCN1CCN(c2ccc(-c3ccncc3)cc2)CC1)C1CCc2ccc(O)cc2C1 (stereo in doubt; 22d) [listing 2 of 2 here] |
| 58 | 2.79 | – | – | 1.03 | – | 108 | CCCN(CCN1CCN(c2ccc(-c3ccccc3)cc2)CC1)C1CCc2ccc(O)cc2C1 (stereo in doubt; (+)-8a) [listing 1 of 2 here] |
| – | – | 20.8 | 42.1 | – | 105 | – | CCCN(CCN1CCN(c2ccc(-c3ccccc3)cc2)CC1)C1CCc2ccc(O)cc2C1 (stereo in doubt; (+)-8a) [listing 2 of 2 here] |
